By EC50 is commonly meant the midpoint of the concentration-response curve. The term AC50 denotes the midpoint of the concentration-response curve, whichever way the signal moves.

Where “and” joins values, the source holds several entries; their conditions need not be identical. Equal entries are not always repeated. Calls of active or inactive are those of the source.

One assay addresses T1, Coagulation factor XII (Homo sapiens, UniProt P00748).
T1 sequence (P00748 whole entry): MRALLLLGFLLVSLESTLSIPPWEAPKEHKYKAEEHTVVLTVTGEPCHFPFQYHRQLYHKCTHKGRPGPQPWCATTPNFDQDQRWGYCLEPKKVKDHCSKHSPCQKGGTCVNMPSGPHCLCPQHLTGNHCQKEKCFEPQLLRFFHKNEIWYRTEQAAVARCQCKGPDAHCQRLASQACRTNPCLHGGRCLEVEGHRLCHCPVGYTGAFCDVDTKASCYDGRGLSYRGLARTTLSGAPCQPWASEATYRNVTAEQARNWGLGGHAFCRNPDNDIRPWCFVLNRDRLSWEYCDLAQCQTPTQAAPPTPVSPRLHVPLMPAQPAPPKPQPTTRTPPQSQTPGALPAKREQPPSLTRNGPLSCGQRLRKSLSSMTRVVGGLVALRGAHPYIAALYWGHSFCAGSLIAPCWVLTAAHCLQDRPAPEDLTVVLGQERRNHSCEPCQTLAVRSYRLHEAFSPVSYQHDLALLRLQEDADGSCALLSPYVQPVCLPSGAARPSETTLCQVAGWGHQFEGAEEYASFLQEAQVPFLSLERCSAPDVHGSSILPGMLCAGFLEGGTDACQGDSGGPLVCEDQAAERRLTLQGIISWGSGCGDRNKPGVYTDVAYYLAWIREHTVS
The assay is described as follows: FXIIa inhibitor potency, concentration-response, biochemical (AID 716). The assay is classed as functional.

Assay [1] addresses Voltage-dependent T-type calcium channel subunit alpha-1H (Homo sapiens, UniProt O95180). The assay is described as follows: Cav3.2 T-type channel blockers, cell-based, SynthLib3 library, HEK293 Cav3.2, fluorescence (AID 493041). Format: functional.
The target of assay [2] is Lysine-specific demethylase 4A (Homo sapiens, UniProt O75164). The assay is described as follows: JMJD2A histone demethylase inhibitors, dose response, selectivity assay for GASC-1 inhibitor project, biochemical, DELFIA europium, cherry-picked samples (AID 488840).
Assay [3] concerns the target Lysine-specific demethylase 4C (Homo sapiens, UniProt Q9H3R0). Put plainly: GASC-1 (JMJD2C) histone demethylase inhibitors, dose response, biochemical, DELFIA europium, cherry-picked samples (AID 488835). Format: functional.
Assay [4] concerns the target Sphingosine 1-phosphate receptor 4 (Homo sapiens, UniProt O95977). Put plainly: Fluorescence dose response cell-based high throughput screening assay for agonists of the Sphingosine 1-Phosphate Receptor 4 (S1P4). [Related pubchem assays: 1509 (Primary screen.), 1523 (Confirmation screen in triplicates.)]. Format: functional.
In assay [5] the target is Sphingosine 1-phosphate receptor 1 (Homo sapiens, UniProt P21453). The assay is described as follows: Fluorescence-based counterscreen assay for S1P4 agonists: Cell-based dose response high throughput screening assay to identify agonists of the Sphingosine 1-Phosphate Receptor 1 (S1P1). [Related pubchem assays (depositor defined):AID1509, AID1523, AID1801, AID463107, AID463118, AID463119, AID463122, AID463123, AID463129, AID463225, AID504400, AID504460]. The assay is classed as functional. On the technique in general: Counterscreens check selectivity or assay interference.

The target of assay [6] is T2, Tyrosine-protein phosphatase non-receptor type 7 (Homo sapiens, UniProt P35236).
T2 sequence (P35236 whole entry): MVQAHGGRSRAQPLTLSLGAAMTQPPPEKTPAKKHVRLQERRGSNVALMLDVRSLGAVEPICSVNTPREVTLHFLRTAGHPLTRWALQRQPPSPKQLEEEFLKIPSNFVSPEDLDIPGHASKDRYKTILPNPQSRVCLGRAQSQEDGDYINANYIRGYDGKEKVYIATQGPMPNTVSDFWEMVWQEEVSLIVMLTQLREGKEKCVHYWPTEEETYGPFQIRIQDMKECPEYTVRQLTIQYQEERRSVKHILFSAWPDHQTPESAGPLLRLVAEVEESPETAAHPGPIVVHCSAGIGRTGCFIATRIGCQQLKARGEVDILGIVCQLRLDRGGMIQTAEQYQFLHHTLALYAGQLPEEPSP
The assay is described as follows: redox-dependent HePTP inhibition, mechanism study, biochemical, fluorescence (AID 2068). Format: functional.

Assay [7] deals with T3, Polyadenylate-binding protein 1 (Homo sapiens, UniProt P11940). The assay is described as follows: PABP1 MLLE–PAM2 binding inhibitor potency, dose response, biochemical, fluorescence polarization, FITC-PAM2 peptide (AID 602259). The assay is classed as functional. The following applies: read-out: IC50_Mean. Background: Fluorescence polarisation rises when a labelled molecule tumbles more slowly, as on binding a larger partner.

In assay [8] the target is T4, Dual specificity protein phosphatase 3 (Homo sapiens, UniProt P51452). The assay is described as follows: MOA VHR1 Fluorescent secondary assay for identification of redox-state modulating compounds. [Related pubchem assays (depositor defined):AID1654, AID1661, AID1878, AID1957].
Assay [9] concerns the target T4, Dual specificity protein phosphatase 3. Put plainly: SAR VHR1 Fluorescent Assay for In Vitro dose response studies. [Related pubchem assays (depositor defined):AID1654, AID1661, AID1878, AID1992, AID2004, AID2070, AID2085]. Format: functional.
For assay [10] the target is unchanged. The assay is described as follows: SAR VHR1 absorbance Assay for In Vitro dose response studies. [Related pubchem assays (depositor defined):AID1654, AID1661, AID1878, AID1992, AID2004].
Assay [11] addresses T3, Polyadenylate-binding protein 1. The assay is described as follows: PABP1 MLLE–PAM2 interaction inhibitors, dose response, miRNA deadenylation inhibitor project, biochemical, fluorescence polarization, Cy5-PAM2 peptide, secondary (AID 602260). Format: functional. To be noted: read-out: IC50_Mean.
In assay [12] the target is T4, Dual specificity protein phosphatase 3. The assay is described as follows: VHR phosphatase inhibition, dose response, selectivity assay for STEP inhibitor project, biochemical (AID 602374). The assay is classed as functional. To be noted: read-out: IC50_Mean.
Assay [13] shares this target. Put plainly: VHR1 phosphatase inhibitors, biochemical (AID 1878).
Assay [14] addresses Tyrosine-protein phosphatase non-receptor type 5 (Homo sapiens, UniProt P54829). The assay is described as follows: STEP phosphatase inhibitors, confirmation, biochemical, fluorescence intensity, uHTS hits (AID 602372). The assay is classed as functional. To be noted: read-out: IC50_Mean.
In assay [15] the target is Tyrosine-protein phosphatase non-receptor type 11 (Homo sapiens, UniProt Q06124). Put plainly: SHP2 phosphatase inhibition, dose response, selectivity assay for STEP inhibitor project, biochemical (AID 602367). The assay is classed as functional. The following applies: read-out: IC50_Mean.
For assay [16], the target named is T5, Dual specificity protein phosphatase 6 (Rattus norvegicus, UniProt Q64346).
T5 sequence (Q64346 whole entry): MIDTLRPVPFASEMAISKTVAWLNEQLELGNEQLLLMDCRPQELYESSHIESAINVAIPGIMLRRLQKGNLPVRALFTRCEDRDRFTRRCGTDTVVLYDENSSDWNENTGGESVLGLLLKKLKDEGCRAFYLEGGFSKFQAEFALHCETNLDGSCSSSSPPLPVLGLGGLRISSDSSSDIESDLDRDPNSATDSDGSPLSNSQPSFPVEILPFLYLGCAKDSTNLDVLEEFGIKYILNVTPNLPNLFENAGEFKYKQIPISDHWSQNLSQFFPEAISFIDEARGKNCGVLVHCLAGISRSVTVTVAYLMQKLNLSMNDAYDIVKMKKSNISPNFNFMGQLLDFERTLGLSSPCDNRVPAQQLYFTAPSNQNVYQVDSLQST
The assay is classed as functional.

Assay [17] deals with T4, Dual specificity protein phosphatase 3. The assay is described as follows: VHR1 phosphatase inhibitors, primary screen, biochemical, absorbance, uHTS (AID 1654).
Assay [18] concerns the target T5, Dual specificity protein phosphatase 6. Put plainly: MKP-3 phosphatase inhibitors, primary screen, biochemical, rat enzyme, in vitro (AID 425).
The target of assay [19] is T6, Intestinal-type alkaline phosphatase (Homo sapiens, UniProt P09923). Put plainly: human IAP activators, dose response, biochemical, luminescent, uHTS hits, set 2 (AID 488817).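 Also: potency of activators that raise enzyme activity.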 The assay is classed as functional.
Assay [20] deals with T7, Alkaline phosphatase, tissue-nonspecific isozyme (Homo sapiens, UniProt P05186).
T7 sequence (P05186 whole entry): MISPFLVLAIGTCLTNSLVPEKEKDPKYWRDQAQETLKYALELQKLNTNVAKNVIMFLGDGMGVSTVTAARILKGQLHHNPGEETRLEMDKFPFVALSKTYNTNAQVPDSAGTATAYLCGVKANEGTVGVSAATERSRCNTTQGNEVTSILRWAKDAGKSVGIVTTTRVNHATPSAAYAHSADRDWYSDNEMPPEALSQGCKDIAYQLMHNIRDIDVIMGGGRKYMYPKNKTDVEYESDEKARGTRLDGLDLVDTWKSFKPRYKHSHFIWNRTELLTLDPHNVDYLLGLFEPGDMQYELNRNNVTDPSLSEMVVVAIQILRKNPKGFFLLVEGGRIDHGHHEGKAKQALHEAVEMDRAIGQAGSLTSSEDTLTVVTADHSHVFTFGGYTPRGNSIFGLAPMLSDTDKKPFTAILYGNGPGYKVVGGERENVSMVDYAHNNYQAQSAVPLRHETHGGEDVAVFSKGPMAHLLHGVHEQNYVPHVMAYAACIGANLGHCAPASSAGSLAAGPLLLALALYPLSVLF
Put plainly: TNAP enzyme activators, dose response, selectivity assay for human IAP activator project, biochemical, TNAP isozyme, human IAP uHTS hits (AID 488886).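 Also: potency of compounds raising TNAP activity as a selectivity check on IAP activators.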 The assay is classed as functional.

Assay [21] addresses T6, Intestinal-type alkaline phosphatase. Put plainly: human intestinal alkaline phosphatase activators, dose response, biochemical, luminescence, uHTS hits (AID 463120). Format: functional.
In assay [22] the target is T7, Alkaline phosphatase, tissue-nonspecific isozyme. The assay is described as follows: TNAP enzyme inhibition by screening hits, dose response, selectivity assay for mouse IAP inhibitor project, biochemical, human TNAP, uHTS hits (AID 488906). The assay is classed as functional.
The target of assay [23] is T6, Intestinal-type alkaline phosphatase. The assay is described as follows: activation of human intestinal alkaline phosphatase – biochemical, dose response (AID 488873). Format: functional.
Assay [24] has as its target T8, Intestinal-type alkaline phosphatase (Mus musculus, UniProt P24822). The assay is described as follows: PubChem AID 488785. The assay is classed as functional.
The target of assay [25] is T8, Intestinal-type alkaline phosphatase. The assay is described as follows: PubChem AID 488875. The assay is classed as functional.

T4 sequence (P51452 whole entry): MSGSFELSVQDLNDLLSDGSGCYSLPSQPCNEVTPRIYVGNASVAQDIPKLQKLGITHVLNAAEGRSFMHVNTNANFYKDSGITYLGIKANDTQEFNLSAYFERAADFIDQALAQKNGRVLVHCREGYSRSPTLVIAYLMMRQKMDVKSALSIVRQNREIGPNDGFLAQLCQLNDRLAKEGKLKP
T6 sequence (P09923 whole entry): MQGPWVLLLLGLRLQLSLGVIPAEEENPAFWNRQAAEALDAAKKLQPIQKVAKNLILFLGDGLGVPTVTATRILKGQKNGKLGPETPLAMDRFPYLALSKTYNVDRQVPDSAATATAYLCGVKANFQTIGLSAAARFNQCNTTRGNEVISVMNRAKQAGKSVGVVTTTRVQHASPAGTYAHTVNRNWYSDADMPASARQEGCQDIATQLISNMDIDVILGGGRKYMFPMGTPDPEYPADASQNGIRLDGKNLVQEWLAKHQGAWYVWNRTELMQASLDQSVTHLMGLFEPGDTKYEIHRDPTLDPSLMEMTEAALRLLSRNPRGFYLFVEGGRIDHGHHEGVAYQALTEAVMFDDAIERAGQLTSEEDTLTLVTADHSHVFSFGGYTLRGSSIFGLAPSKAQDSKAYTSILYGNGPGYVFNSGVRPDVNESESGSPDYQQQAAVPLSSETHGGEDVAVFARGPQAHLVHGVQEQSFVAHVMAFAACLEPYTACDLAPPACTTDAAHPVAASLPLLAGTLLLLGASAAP
T8 sequence (P24822 whole entry): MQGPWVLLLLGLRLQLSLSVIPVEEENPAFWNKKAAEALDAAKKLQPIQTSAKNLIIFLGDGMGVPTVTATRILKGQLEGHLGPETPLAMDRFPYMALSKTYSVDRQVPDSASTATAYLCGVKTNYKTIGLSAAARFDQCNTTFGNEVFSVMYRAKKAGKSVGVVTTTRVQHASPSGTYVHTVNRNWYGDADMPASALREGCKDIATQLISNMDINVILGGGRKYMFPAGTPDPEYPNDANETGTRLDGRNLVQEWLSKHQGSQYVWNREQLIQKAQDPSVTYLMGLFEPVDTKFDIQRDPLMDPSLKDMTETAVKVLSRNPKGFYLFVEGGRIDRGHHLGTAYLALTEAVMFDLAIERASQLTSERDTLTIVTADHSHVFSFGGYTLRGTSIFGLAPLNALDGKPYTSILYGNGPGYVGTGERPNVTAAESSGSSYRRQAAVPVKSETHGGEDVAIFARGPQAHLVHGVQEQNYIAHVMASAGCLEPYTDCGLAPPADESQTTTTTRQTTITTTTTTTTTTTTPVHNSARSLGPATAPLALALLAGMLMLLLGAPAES
T3 sequence (P11940 whole entry): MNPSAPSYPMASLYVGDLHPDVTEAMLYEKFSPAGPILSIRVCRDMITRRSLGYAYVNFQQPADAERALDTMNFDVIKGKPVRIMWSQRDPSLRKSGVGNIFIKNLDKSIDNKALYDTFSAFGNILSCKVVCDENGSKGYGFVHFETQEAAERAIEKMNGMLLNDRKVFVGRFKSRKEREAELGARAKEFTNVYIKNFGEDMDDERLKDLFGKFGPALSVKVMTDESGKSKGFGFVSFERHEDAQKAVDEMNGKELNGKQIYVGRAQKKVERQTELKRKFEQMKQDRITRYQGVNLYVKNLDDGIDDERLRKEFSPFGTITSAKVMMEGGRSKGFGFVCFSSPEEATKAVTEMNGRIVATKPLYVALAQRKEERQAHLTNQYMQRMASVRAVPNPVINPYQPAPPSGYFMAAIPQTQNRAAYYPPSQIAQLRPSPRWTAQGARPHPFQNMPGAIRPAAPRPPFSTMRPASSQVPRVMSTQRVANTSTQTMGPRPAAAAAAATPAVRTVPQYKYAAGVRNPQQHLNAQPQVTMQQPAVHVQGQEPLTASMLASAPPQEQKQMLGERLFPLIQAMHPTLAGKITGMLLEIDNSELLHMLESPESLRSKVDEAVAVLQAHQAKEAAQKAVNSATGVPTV
Chain of Sphingosine 1-phosphate receptor 4 (O95977 whole entry): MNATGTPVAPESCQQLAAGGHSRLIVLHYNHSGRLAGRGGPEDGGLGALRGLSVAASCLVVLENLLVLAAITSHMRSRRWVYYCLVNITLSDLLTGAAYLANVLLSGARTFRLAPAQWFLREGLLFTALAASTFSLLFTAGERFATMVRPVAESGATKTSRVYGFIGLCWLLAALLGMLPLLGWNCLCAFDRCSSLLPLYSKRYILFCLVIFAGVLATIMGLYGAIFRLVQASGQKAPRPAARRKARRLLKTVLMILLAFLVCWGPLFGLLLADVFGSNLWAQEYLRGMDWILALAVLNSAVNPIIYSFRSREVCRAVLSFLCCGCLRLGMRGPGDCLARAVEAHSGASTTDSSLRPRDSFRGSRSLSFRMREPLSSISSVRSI
Chain of Sphingosine 1-phosphate receptor 1 (P21453 whole entry): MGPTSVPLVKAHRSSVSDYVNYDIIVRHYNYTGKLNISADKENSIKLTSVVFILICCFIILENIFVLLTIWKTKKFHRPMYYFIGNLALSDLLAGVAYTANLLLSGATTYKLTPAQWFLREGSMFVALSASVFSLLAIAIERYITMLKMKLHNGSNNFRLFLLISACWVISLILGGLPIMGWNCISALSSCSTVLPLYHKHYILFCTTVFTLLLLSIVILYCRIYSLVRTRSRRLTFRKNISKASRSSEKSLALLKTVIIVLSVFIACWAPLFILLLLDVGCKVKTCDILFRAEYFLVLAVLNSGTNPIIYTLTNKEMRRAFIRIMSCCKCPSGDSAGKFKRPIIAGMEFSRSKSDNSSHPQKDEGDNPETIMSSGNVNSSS
Chain of Lysine-specific demethylase 4C (Q9H3R0 whole entry): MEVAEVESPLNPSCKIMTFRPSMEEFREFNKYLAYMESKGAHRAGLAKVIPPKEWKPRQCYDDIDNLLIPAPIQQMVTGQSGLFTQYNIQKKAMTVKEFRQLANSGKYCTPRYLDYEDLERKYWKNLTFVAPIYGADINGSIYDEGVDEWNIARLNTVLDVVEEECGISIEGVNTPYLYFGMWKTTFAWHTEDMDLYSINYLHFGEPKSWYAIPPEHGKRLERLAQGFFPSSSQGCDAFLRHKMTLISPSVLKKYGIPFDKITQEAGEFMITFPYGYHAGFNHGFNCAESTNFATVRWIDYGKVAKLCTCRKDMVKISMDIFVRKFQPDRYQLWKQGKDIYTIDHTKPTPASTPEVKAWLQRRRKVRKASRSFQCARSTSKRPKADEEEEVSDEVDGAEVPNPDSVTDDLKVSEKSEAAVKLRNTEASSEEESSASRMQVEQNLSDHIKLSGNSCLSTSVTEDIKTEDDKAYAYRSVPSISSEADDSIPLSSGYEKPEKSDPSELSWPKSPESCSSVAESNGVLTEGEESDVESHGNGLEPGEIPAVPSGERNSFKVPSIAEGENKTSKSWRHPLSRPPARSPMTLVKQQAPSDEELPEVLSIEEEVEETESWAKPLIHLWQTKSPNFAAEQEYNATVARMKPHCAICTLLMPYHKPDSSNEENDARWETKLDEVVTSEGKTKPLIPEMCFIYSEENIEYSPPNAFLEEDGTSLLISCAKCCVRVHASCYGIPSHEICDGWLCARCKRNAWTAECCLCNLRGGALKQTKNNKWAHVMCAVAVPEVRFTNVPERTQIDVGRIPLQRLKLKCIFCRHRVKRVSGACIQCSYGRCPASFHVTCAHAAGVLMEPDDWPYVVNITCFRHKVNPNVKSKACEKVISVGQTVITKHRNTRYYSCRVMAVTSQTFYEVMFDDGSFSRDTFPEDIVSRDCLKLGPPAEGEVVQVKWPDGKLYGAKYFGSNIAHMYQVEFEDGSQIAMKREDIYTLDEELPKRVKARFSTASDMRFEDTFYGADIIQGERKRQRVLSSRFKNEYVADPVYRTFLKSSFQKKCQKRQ
Chain of Tyrosine-protein phosphatase non-receptor type 5 (P54829 whole entry): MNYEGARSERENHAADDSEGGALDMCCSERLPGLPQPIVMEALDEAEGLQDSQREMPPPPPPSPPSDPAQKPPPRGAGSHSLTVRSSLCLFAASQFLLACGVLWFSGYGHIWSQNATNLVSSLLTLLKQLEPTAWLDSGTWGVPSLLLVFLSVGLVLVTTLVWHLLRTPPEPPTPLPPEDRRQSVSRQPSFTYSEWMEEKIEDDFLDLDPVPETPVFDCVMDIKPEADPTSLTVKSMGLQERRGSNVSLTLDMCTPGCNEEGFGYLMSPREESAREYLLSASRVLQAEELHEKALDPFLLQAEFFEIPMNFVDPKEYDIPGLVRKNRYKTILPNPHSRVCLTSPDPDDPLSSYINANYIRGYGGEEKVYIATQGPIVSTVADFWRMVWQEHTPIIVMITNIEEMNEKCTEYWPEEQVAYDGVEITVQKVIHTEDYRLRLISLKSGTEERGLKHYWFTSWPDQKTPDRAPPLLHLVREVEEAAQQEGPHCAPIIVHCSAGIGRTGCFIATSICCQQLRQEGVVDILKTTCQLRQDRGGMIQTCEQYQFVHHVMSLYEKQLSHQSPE
Chain of Tyrosine-protein phosphatase non-receptor type 11 (Q06124 whole entry): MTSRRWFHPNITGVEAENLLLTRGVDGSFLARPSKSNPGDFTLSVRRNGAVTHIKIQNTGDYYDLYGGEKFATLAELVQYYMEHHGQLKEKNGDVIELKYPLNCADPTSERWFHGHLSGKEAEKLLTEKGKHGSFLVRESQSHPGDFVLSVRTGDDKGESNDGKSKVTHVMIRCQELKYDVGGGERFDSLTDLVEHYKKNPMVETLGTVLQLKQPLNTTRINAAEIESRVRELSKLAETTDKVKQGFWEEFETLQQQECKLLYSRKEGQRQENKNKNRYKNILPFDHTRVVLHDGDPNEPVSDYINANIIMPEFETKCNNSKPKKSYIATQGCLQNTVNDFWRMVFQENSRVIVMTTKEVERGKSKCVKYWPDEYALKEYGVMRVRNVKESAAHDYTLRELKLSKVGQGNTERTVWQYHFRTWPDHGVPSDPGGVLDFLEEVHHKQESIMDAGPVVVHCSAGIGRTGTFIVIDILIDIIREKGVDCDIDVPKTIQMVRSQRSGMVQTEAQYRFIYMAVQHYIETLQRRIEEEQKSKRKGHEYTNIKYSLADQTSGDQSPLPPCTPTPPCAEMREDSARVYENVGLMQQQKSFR

Consider `O=C1C(c2ccncc2)N(CCC2=CCCCC2)C(=O)CN1C1CCCCC1` (stereo unspecified), for which the IC50 at Coagulation factor XII is > 50 µM (inactive).
Consider `CC(Cc1nnc(NC(=O)COc2ccc(Cl)cc2Cl)o1)CC(C)(C)C` (stereo unspecified), for which the EC50 in assay [1] was 10 µM (active).
With `Cn1c(=O)c2nc(O)cnc2n(C)c1=S`, the figures for the AC50 in [2] and in assay [3] were 45.3 µM (active) and 4.26 µM (active), respectively.
For `CNC(=O)c1[nH]cnc1C(=O)N[C@@H](CC(C)C)C(=O)OCc1ccccc1`, the EC50 in assay [4] is 5.27 µM (active); in assay [5], 22 µM (inactive).
`COc1cc(C(=S)N2CCCCC2)ccc1O`: the IC50 was 84.6 nM (active) and 3.16 µM (active) in assay [6]; > 66 µM (inactive) in [7]; 127 nM (active) and 5.55 µM (active) in [8]; 366 nM (active) and > 100 µM (inactive) in [9]; 0.958 µM (active) in [10]; > 66 µM (inactive) in [11]. In addition, the IC50 in [12] is 0.331 µM (active); in assay [13] it was 3.34 µM (active); in [14] it was 5.11 µM (active); in assay [15], 1.2 µM (active); in [16], > 100 µM (inactive); in assay [17], 1.68 µM (active). Moreover, the IC50 in [18] is > 158 µM (not active).
In the case of `CCn1nc(C)c(CN2CCC(C(=O)Nc3cccc(-c4cccc(F)c4)c3)CC2)c1C`, the EC50 in assay [19] is 52.9 µM (active); in assay [20] it was 54 µM (active); in assay [21] it was 59.8 µM (active); in assay [23], > 100 µM (inactive); in assay [25] it was 49.9 µM (active). Moreover, the IC50 in assay [22] was 23.4 µM (active); in [24] it was 8.35 µM (active).

The values are drawn from ChEMBL document CHEMBL1201862, “PubChem BioAssay data set” (2004).
